Measurements published in US10004732B2 (Novartis AG, priority 2014, dated 2018).

Tests used:
PI 3-kinase beta [1] = molecular target: T1, PI 3-kinase beta (Homo sapiens, UniProt P42338); assay: Cellular assay I1, p-Akt (S473) in Rat-1 cells, Surefire format; assay type: cell-based; conditions: non-asterisked data: version I1 (Surefire format), Rat-1 cells; read-out: Assay I PI3Kβ IC50
PI 3-kinase alpha [2] = molecular target: T2, PI 3-kinase alpha (Homo sapiens, UniProt P42336); assay: Kinase Glo Luminescent Kinase Assay (Kglo), assay A; assay type: biochemical; conditions: read-out: Assay A PI3Kα IC50
Target sequence in this assay (P42336 whole entry): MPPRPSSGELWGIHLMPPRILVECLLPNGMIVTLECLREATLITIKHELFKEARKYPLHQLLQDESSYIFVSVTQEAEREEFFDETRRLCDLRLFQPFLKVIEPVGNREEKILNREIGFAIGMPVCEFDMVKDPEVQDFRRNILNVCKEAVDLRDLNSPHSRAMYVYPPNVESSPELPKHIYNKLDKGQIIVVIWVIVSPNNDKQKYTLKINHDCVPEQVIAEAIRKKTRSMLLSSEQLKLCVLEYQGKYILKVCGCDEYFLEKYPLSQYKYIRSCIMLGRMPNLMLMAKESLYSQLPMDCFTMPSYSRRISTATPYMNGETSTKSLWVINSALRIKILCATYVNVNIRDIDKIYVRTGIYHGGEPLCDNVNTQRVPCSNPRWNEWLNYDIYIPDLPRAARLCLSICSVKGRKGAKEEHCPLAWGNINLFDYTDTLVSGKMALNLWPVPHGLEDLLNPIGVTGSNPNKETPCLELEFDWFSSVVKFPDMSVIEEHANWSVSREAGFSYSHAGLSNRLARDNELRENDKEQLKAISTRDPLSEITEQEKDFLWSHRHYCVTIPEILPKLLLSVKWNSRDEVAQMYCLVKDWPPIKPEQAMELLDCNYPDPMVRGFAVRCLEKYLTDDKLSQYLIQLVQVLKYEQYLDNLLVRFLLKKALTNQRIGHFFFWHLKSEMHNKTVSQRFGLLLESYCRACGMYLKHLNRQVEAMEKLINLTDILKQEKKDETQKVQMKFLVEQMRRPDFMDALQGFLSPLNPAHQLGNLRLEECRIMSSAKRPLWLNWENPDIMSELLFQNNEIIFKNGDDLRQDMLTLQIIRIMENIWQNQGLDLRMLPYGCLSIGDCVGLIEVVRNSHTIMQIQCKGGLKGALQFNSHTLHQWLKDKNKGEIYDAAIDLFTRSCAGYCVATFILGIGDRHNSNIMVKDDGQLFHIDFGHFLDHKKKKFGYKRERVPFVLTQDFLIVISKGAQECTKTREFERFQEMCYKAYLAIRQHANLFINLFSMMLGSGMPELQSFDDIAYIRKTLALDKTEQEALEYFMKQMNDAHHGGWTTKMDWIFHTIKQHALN
Protocol: Kinase Glo Luminescent Kinase Assay (Kglo) for Pb 3-Kinase Alpha (A), Pb 3-Kinase Beta (B), Vps34 (C), Pb 4-Kinase Beta (D)
The Kinase Glo Luminescent Kinase Assay (Promega, Madison/Wis., USA) is a homogeneous HTS method of measuring kinase activity by quantifying the amount of ATP remaining in solution following a kinase reaction.
L-α-phosphatidylinositol (PI), provided as 10 mg/ml solution in methanol, was transferred into a glass tube and dried under a nitrogen beam. It was then resuspended in 3% OctylGlucoside (1-0-n-octyl-beta-D-glucopyranoside) by vortexing and stored at 4° C. 5 μL of a mix of PI/OctylGlucoside with the PI 3-kinase alpha and PI 3-kinase beta subtypes, or Vps34 or PI 4-kinase beta were added. Kinase reactions were started by the addition of 5 μl of an ATP-mix containing in a final volume 10 μL 10 mM TRIS-HCl pH 7.5, 3 mM MgCl2, 50 mM NaCl, 0.05% CHAPS, 1 mM DTT and 1 μM ATP at room temperature.
All fits were performed with the program XLfit4 (ID Business Solutions, Guildford, UK).

PI 3-kinase delta [3] = molecular target: T3, PI 3-kinase delta (Homo sapiens, UniProt O00329); assay: Cellular assay J1, p-Akt (S473) in Rat-1 cells, Surefire format; assay type: cell-based; conditions: non-asterisked data: version J1 (Surefire format), Rat-1 cells; read-out: Assay J PI3Kδ IC50
Target sequence in this assay (O00329 whole entry): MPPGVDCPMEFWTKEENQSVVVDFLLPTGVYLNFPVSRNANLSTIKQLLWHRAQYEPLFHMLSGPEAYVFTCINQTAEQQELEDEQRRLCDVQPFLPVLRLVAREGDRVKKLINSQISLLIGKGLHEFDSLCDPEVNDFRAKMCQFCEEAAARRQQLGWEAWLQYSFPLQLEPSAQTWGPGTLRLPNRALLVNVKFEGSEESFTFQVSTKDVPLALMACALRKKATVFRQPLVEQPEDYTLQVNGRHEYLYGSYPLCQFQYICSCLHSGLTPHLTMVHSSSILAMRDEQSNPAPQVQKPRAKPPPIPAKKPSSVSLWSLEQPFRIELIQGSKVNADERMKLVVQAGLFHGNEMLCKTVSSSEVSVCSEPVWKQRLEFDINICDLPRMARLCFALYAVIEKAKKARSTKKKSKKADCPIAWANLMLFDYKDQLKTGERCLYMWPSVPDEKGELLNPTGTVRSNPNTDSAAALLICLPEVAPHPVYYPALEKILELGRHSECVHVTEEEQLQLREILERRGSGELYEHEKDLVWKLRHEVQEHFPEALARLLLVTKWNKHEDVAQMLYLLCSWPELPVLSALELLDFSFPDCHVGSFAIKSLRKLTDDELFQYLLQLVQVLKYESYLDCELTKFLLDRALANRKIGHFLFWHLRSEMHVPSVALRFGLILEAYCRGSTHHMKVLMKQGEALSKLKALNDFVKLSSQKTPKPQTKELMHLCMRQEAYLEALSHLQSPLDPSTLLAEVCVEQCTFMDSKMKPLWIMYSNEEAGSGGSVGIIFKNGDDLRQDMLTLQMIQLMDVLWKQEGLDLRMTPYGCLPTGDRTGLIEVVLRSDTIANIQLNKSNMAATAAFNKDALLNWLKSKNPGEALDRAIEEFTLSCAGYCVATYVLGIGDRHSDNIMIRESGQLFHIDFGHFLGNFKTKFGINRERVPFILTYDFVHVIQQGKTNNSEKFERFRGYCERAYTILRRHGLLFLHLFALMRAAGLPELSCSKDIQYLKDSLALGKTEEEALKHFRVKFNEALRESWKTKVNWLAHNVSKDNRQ
Target sequence in this assay (Q63787 whole entry partner): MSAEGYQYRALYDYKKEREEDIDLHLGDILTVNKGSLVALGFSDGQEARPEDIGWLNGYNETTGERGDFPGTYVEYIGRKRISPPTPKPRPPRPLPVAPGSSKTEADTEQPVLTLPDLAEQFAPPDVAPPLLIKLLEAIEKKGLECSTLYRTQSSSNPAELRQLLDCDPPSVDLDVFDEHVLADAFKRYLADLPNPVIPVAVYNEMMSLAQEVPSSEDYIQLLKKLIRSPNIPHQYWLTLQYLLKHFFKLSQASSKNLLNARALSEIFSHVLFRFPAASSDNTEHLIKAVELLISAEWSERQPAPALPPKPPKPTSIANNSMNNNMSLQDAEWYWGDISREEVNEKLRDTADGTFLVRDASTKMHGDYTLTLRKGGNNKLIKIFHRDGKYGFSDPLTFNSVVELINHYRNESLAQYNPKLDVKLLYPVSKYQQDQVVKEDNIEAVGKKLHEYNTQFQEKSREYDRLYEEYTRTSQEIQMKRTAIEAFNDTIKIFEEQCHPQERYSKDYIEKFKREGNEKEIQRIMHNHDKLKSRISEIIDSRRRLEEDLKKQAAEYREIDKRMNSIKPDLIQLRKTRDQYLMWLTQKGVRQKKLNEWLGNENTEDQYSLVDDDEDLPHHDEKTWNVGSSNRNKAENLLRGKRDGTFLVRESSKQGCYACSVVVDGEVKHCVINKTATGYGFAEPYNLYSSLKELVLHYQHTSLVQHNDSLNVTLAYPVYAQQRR

mTOR = mTOR (Homo sapiens, UniProt P42345); assay: Lanthascreen kinase binding assay, assay G; conditions: read-out: Assay G mTOR IC50
Protocol: Lanthascreen™ Kinase Binding Assay for mTOR (G)
Binding of an inhibitor to the kinase competes for binding with the tracer, resulting in a loss of FRET.
50 nL of compound dilutions were dispensed onto white 384-well small volume polystyrene plate.

PI 3-kinase alpha [4] = molecular target: T2, PI 3-kinase alpha; assay: Cellular assay H1, p-Akt (S473) in Rat-1 cells, Surefire format; assay type: cell-based; conditions: non-asterisked data: version H1 (Surefire format), Rat-1 cells; read-out: Assay H PI3Kα IC50
Target sequence in this assay (P42336 whole entry): as the sequence (P42336 whole entry) above
Target sequence in this assay (Q63787 whole entry partner): as the sequence (Q63787 whole entry partner) above

PI 3-kinase gamma = PI 3-kinase gamma (Homo sapiens, UniProt P48736); assay: TR-FRET Adapta assay, assay E; assay type: biochemical; conditions: for IC50: read-out: Assay E PI3Kγ IC50
PI 4-kinase beta = PI 4-kinase beta (Homo sapiens, UniProt Q9UBF8); assay: Kinase Glo Luminescent Kinase Assay (Kglo), assay D; assay type: biochemical; conditions: read-out: Assay D PI4Kβ IC50
Chain of PI 4-kinase beta (Q9UBF8 whole entry): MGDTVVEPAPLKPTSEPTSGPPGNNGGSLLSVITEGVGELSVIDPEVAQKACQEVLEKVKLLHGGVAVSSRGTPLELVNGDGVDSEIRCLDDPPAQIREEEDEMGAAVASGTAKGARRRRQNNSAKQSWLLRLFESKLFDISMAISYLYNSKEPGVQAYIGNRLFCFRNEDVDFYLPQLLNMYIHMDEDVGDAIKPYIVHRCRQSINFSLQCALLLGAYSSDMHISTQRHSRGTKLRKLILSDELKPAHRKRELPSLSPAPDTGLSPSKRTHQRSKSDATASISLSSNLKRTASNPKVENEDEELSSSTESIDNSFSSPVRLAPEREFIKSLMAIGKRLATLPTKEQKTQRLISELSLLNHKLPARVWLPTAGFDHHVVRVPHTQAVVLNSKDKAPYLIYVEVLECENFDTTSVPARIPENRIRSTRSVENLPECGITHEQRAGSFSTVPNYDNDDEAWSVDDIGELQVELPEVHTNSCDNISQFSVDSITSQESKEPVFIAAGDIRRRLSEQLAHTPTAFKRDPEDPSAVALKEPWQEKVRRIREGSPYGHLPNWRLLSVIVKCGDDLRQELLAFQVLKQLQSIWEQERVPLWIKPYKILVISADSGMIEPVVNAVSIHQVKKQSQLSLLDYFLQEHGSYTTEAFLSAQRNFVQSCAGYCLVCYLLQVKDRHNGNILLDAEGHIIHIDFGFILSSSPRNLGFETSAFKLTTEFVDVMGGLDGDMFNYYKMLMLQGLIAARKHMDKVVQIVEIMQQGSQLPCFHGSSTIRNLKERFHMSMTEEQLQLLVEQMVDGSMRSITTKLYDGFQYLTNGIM

PI 3-kinase delta [5] = molecular target: T3, PI 3-kinase delta; assay: TR-FRET Adapta assay, assay F
Target sequence in this assay (O00329 whole entry): as the sequence (O00329 whole entry) above
Target sequence in this assay (P27986 461-568 partner): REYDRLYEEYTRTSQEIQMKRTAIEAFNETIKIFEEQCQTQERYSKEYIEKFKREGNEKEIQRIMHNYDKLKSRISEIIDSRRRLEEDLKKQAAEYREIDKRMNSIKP

Vps34 = Vps34 (Homo sapiens, UniProt Q8NEB9); assay: Kinase Glo Luminescent Kinase Assay (Kglo), assay C; assay type: biochemical; conditions: read-out: Assay C VPS34 IC50
Chain of Vps34 (Q8NEB9 whole entry, species assumed): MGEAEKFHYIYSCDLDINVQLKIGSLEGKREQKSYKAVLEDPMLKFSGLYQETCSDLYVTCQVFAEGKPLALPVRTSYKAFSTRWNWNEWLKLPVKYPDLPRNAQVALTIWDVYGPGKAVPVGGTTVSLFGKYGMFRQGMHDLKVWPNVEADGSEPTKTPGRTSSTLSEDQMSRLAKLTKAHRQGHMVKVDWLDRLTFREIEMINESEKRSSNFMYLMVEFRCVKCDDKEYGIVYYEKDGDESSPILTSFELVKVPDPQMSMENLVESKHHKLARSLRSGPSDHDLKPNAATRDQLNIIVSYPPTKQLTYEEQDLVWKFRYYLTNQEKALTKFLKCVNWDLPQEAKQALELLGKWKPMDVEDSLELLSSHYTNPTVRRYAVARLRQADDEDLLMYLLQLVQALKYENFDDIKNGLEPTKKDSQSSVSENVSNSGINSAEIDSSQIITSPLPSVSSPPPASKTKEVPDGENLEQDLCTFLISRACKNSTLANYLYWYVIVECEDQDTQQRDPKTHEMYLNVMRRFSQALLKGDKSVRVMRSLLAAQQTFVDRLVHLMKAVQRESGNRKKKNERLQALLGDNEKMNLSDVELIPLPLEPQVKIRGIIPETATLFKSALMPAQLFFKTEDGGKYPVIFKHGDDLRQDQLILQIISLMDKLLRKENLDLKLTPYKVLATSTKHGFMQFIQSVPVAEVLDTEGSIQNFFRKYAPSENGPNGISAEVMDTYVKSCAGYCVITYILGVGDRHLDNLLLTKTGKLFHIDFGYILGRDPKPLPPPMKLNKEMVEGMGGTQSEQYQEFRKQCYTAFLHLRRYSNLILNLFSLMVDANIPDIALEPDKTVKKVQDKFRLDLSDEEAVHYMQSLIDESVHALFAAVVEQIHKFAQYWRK

PI 3-kinase beta [6] = molecular target: T1, PI 3-kinase beta; assay: Kinase Glo Luminescent Kinase Assay (Kglo), assay B; assay type: biochemical; conditions: read-out: Assay B PI3Kβ IC50

Structure (SMILES) | IC50 (PI 3-kinase beta [1]) | IC50 (PI 3-kinase alpha [2]) | IC50 (PI 3-kinase delta [3]) | IC50 (mTOR) | IC50 (PI 3-kinase alpha [4]) | IC50 (PI 3-kinase gamma) | IC50 (PI 4-kinase beta) | IC50 (PI 3-kinase delta [5]; read-out: Assay F PI3Kδ IC50) | IC50 (Vps34) | IC50 (PI 3-kinase beta [6]) | IC50 (PI 3-kinase delta [5]) | activity in assay E (PI 3-kinase gamma; TR-FRET Adapta, PI 3-kinase gamma)
Cc1ccc(S(=O)(=O)NCCC(C)(C)O)cc1-c1cnc(N)c(-c2ccncc2F)n1 [Example 119.11] | 3.56 µM | 0.45 µM | 6.94 µM | > 9.1 µM | 2.54 µM | 0.303 µM | > 9.1 µM | 1.1 µM | > 9.1 µM | > 9.1 µM | – | –
Cc1ccc(S(=O)(=O)NCCC(C)(C)O)cc1-c1cnc(N)c(-c2cnc(Cl)cc2C)n1 [Example 119.9] | 3.07 µM | 0.33 µM | 4.23 µM | > 9.1 µM | 1.92 µM | 0.178 µM | 0.69 µM | 0.9 µM | > 9.1 µM | 7.78 µM | – | –
Cc1ccc(S(=O)(=O)NCCC(C)(C)O)cc1-c1cnc(N)c(-c2c[nH]nc2C)n1 [Example 119.22] | > 10 µM | 0.57 µM | > 10 µM | 2.34 µM | 4.41 µM | 0.157 µM | 2.19 µM | 0.53 µM | > 9.1 µM | 1.93 µM | – | –
Cc1ccc(S(=O)(=O)NCCC(C)(C)O)cc1-c1cnc(N)c(-c2cc(Cl)cnc2F)n1 [Example 119.8] | 4.64 µM | 1.05 µM | 5.2 µM | 5.94 µM | 3.85 µM | 0.167 µM | 4.53 µM | 0.2 µM | > 9.1 µM | > 9.1 µM | – | –
Cc1ccc(S(=O)(=O)NCCC(C)(C)O)cc1-c1cnc(N)c(-c2ccc(OC3CCOCC3)nc2)n1 [Example 119.24] | 9.22 µM | 1.09 µM | 3.17 µM | 9.02 µM | 2.6 µM | 0.761 µM | 3.4 µM | 1.67 µM | > 9.1 µM | > 9.1 µM | – | –
Cc1ccc(S(=O)(=O)NCCC(C)(C)O)cc1-c1cnc(N)c(-c2ccc(N3CCCC3)nc2)n1 [Example 119.17] | 6.17 µM | 1.45 µM | 7.16 µM | > 9.1 µM | 2.81 µM | 0.362 µM | 1.56 µM | 2.54 µM | > 9.1 µM | > 9.1 µM | – | –
Cc1ccc(S(=O)(=O)NCC2COCCN2C)cc1-c1cnc(N)c(-c2cn(C)nc2C)n1 (single isomer, unassigned) [Example 128.3b, (R)-3-(5-Amino-6-(1,3-dimethyl-1H-pyrazol-4-yl)pyrazin-2-yl)-4-methyl-N-((4-methylmorpholin-3-yl)methyl)benzenesulfonamide or (S)-3-(5-Amino-6-(1,3-dimethyl-1H-pyrazol-4-yl)pyrazin-2-yl)-4-methyl-N-((4-methylmorpholin-3-yl)methyl)benzenesulfonamide] | – | 0.37 µM | 3.82 µM | – | 4.97 µM | 0.055 µM | 4.6 µM | – | > 10 µM | – | 0.54 µM | –
Cc1ccc(S(=O)(=O)NCCC(C)(C)O)cc1-c1cnc(N)c(-c2cccnc2F)n1 [Example 119.1] | 3.81 µM | 0.61 µM | 2.82 µM | 4.91 µM | 2.69 µM | 1 µM | 6.2 µM | 2.3 µM | > 9.1 µM | > 9.1 µM | – | –
Cc1ccc(S(=O)(=O)NCCC(C)(C)O)cc1-c1cnc(N)c(-c2cnn(C)c2C)n1 [Example 119.19] | > 10 µM | > 9.1 µM | > 10 µM | > 9.1 µM | > 10 µM | 3.47 µM | > 9.1 µM | > 9.1 µM | > 9.1 µM | > 9.1 µM | – | –
Cc1ccc(S(=O)(=O)NOCC(C)C)cc1-c1cnc(N)c(-n2cncn2)n1 [Example 112.4, 3-(5-Amino-6-(1H-1,2,4-triazol-1-yl)pyrazin-2-yl)-N-isobutoxy-4-methylbenzenesulfonamide] | > 3 µM | 0.08 µM | 0.4 µM | > 10 µM | 0.07 µM | 0.093 µM | 1.1 µM | 0.19 µM | > 10 µM | 0.56 µM | – | –
Cc1ccc(S(=O)(=O)NCCC(C)(C)O)cc1-c1cnc(N)c(-c2cc(C(F)(F)F)nn2C)n1 [Example 119, 3-(5-Amino-6-(1-methyl-3-(trifluoromethyl)-1H-pyrazol-5-yl)pyrazin-2-yl)-N-(3-hydroxy-3-methylbutyl)-4-methylbenzenesulfonamide] | 3.06 µM | 0.6 µM | 1.76 µM | 4.31 µM | 1.64 µM | 0.118 µM | > 9.1 µM | 0.71 µM | > 9.1 µM | > 9.1 µM | – | –
Cc1ccc(S(=O)(=O)NCCC(C)(C)O)cc1-c1cnc(N)c(-c2ccc(F)nc2)n1 [Example 119.18] | 4.48 µM | 0.49 µM | 1.3 µM | > 9.1 µM | 1.32 µM | 0.248 µM | 8.19 µM | 0.58 µM | > 9.1 µM | 8.04 µM | – | –
Cc1cncc(-c2nc(-c3cc(S(=O)(=O)NCCC(C)(C)O)ccc3C)cnc2N)c1 [Example 119.7] | 4.05 µM | 2.98 µM | 5.93 µM | 4.32 µM | 6.97 µM | 0.278 µM | 7.96 µM | 0.72 µM | > 9.1 µM | > 9.1 µM | – | –
Cc1ccc(S(=O)(=O)NCCC(C)(C)O)cc1-c1cnc(N)c(-c2ccoc2)n1 [Example 119.15] | 7.33 µM | 1.66 µM | 1.65 µM | > 9.1 µM | 1.48 µM | 0.162 µM | 4.86 µM | 0.96 µM | > 9.1 µM | 8.81 µM | – | –
Cc1ccc(S(=O)(=O)NCC2CN(C)CCO2)cc1-c1cnc(N)c(-c2cn(C)nc2C)n1 (centres unmarked) [Example 128.5, 3-(5-Amino-6-(1,3-dimethyl-1H-pyrazol-4-yl)pyrazin-2-yl)-4-methyl-N-((4-methylmorpholin-2-yl)methyl)benzenesulfonamide] | > 10 µM | 2.3 µM | > 10 µM | – | > 10 µM | 0.37 µM | > 10 µM | 2.2 µM | > 10 µM | 9.6 µM | – | –
Cc1ccc(S(=O)(=O)NCCC(C)(C)O)cc1-c1cnc(N)c(-c2ccc(N3CCOCC3)nc2)n1 [Example 119.21] | > 10 µM | 1.73 µM | 7.48 µM | > 9.1 µM | 5.16 µM | 0.401 µM | 3.83 µM | 2.18 µM | > 9.1 µM | > 9.1 µM | – | –
Cc1cc(-c2nc(-c3cc(S(=O)(=O)NC4CCNC(=O)C4)ccc3C)cnc2N)ccn1 (centres unmarked) [Example 134, 3-(5-Amino-6-(2-methylpyridin-4-yl)pyrazin-2-yl)-4-methyl-N-(2-oxopiperidin-4-yl)benzenesulfonamide] | > 10 µM | 0.4 µM | > 10 µM | > 9.1 µM | > 10 µM | 0.055 µM | 7.17 µM | 0.35 µM | > 9.1 µM | 4.33 µM | – | –
Cc1ccc(S(=O)(=O)NCCC(C)(C)O)cc1-c1cnc(N)c(-c2ccc(N3CCCCC3)nc2)n1 [Example 119.23] | 8.49 µM | 1.34 µM | 3.53 µM | 7.6 µM | 1.97 µM | 0.525 µM | 0.94 µM | 2.04 µM | > 9.1 µM | > 9.1 µM | – | –
COc1ccc(-c2nc(-c3cc(S(=O)(=O)NCCC(C)(C)O)ccc3C)cnc2N)c(C)n1 [Example 119.14] | 4.39 µM | 1.16 µM | 4.96 µM | 8.53 µM | 3.14 µM | 0.667 µM | 7.35 µM | 1.44 µM | > 9.1 µM | > 9.1 µM | – | –
Cc1ccc(S(=O)(=O)NCCC(C)(C)O)cc1-c1cnc(N)c(-c2cccnc2OC(C)C)n1 [Reference example 119.12, 3-(5-amino-6-(2-isopropoxypyridin-3-yl)pyrazin-2-yl)-N-(3-hydroxy-3-methylbutyl)-4-methylbenzenesulfonamide] | > 10 µM | – | > 10 µM | – | > 10 µM | – | – | – | – | – | – | not shown any activity
COc1ncccc1-c1nc(-c2cc(S(=O)(=O)NCCC(C)(C)O)ccc2C)cnc1N [Example 119.4] | > 10 µM | 2.83 µM | > 10 µM | > 9.1 µM | > 10 µM | 3.12 µM | > 9.1 µM | 5.7 µM | > 9.1 µM | > 9.1 µM | – | –
